Results reported in paper PMC10914731, “Homo-BacPROTAC-induced degradation of ClpC1 as a strategy against drug-resistant mycobacteria” (Nature Communications, 2024).
Where “and” joins values, the source holds several entries; their conditions need not be identical. Identical values can stand only once. Like-named read-outs stand apart in the source and are kept apart here. *1 amine or outer side, *2 acyl side, *3 side chain or, on linkers, in order; H or OH if unused. Where a SMILES comes first, the peptide text is derived from it. [ ]: non-standard residue; d: D form. ξ: configuration not given here. X3 = C#CCOc1ccc([C@@H](OC)[C@H](N[*:1])C(=O)[*:2])cc1; ξNMeTrp(1-Me) = CNC(Cc1cn(C)c2ccccc12)C(=O)O; X8 = CC(CO)C[C@@H](C(=O)[*:2])N(C)[*:1]; NMeL = CN[C@@H](CC(C)C)C(=O)O; ξV = CC(C)C(N)C(=O)O

Legend:
[1] = Hepatocyte stability, mice; assay type: in vitro ADME; settings: for Hepatocyte Mice: clearance in hepatocytes
Experimental: (§1) Cryopreserved hepatocytes are incubated in an appropriate buffer system containing 50% species serum. Following an acclimation period (15–30 min) in an incubator (37 °C, 5−10% CO2, 85–95% humidity) the test compound is added to the hepatocyte suspension (pH 7.4, typical cell density of about 1 million cells/mL; final concentration of test compound is 1 µM, final DMSO concentration <0.05% v/v). The cells are incubated for up to 6 h and samples are taken at 6 different time points. Samples are then quenched with acetonitrile and pelleted by centrifugation. The remaining amount of parent compound in the supernatants is then analysed by HPLC-MS/MS. Clearance is calculated from compound half-lives using the well-stirred liver model and is converted to clearance stated as % of the liver blood flow (% Qh).

[2] = assay type: in vitro ADME, Human; settings: for Hepatocyte Human: clearance in hepatocytes
Experimental: as §1

[3] = in vitro; settings: human; for Papp A→B: apical to basolateral; for Papp B→A: basolateral to apical
Excerpt: (§2) Supplementary Table 1. Structure-Activity Relationships part 1 (SPR, Caco-2) […]
(§3) SPR. Mean values ± standard deviation. Footnotes indicate the number of measurements performed for the respective compound: a) n = […]
(§4) [5] Permeability across Caco-2 monolayers in P(A−B): apical to basolateral and P(B−A): basolateral to apical direction (values reported in 10-
(§5) 6 cm s-1); efflux ratio = P(B−A)/P(A−B); Int. perm: mean value of P(A−B) and P(B−A). […] Influence of Trp-Nα methylation on P(A-B) and efflux
(§6) ratio. Bold: positive influence.

[4] = test system: Caco-2 monolayers; assay: in vitro
Excerpt: as §2, §3, §4, §5, §6

[5] = target: ClpC1 NTD protein (M. tuberculosis) (Mycobacterium tuberculosis, UniProt P9WPC9); assay: biochemical; assay type: binding
ClpC1 NTD protein (M. tuberculosis), sequence (P9WPC9 1-156, looked up, natural form): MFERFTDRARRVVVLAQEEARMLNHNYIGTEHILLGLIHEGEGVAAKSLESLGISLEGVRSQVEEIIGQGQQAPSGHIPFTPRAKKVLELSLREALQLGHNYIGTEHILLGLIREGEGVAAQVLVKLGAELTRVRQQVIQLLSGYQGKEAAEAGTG

[6] = assay type: in vitro ADME, Rat
Experimental: as §1

[7] = target: His6-tagged ClpC1-NTD substrate, M. smegmatis ClpC1P1P2 (UniProt A0R574+P9WPC9); assay: biochemical; assay type: biochemical
His6-tagged ClpC1-NTD substrate, M. smegmatis ClpC1P1P2, sequence (P9WPC9 1-156, looked up, natural form): as above
His6-tagged ClpC1-NTD substrate, M. smegmatis ClpC1P1P2, sequence (A0R574 whole entry): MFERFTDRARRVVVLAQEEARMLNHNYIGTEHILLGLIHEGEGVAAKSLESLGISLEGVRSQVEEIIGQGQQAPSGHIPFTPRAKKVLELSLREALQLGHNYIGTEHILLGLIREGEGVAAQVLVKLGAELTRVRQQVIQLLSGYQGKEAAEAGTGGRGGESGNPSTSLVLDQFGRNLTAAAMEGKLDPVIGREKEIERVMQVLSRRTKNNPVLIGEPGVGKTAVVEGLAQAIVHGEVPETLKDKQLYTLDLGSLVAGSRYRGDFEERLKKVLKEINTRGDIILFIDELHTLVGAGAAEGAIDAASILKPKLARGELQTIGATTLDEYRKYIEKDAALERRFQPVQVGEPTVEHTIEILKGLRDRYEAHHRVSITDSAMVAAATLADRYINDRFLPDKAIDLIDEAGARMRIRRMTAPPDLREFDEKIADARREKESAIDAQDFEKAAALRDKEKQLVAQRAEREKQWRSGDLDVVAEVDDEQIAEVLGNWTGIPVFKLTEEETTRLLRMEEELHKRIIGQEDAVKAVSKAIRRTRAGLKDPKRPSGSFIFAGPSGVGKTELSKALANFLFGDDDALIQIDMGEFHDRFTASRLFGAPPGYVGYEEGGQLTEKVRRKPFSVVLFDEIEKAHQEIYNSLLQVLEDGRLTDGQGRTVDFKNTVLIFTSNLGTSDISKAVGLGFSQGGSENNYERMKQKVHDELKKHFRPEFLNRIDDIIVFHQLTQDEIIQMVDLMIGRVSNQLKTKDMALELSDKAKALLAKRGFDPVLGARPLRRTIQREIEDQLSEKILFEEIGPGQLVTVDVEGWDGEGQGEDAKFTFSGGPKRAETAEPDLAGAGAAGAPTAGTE

[8] = target: ClpC1-NTD substrate, M. tuberculosis ClpC1P1P2 (Mycobacterium tuberculosis, UniProt P9WPC9); assay: biochemical; assay type: biochemical
ClpC1-NTD substrate, M. tuberculosis ClpC1P1P2, sequence (P9WPC5 whole entry): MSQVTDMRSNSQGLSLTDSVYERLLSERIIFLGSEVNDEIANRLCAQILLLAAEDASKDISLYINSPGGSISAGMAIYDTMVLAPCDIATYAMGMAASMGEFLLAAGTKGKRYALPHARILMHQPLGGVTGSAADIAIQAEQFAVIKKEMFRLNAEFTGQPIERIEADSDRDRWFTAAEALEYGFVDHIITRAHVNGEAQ
ClpC1-NTD substrate, M. tuberculosis ClpC1P1P2, sequence (P9WPC9 whole entry): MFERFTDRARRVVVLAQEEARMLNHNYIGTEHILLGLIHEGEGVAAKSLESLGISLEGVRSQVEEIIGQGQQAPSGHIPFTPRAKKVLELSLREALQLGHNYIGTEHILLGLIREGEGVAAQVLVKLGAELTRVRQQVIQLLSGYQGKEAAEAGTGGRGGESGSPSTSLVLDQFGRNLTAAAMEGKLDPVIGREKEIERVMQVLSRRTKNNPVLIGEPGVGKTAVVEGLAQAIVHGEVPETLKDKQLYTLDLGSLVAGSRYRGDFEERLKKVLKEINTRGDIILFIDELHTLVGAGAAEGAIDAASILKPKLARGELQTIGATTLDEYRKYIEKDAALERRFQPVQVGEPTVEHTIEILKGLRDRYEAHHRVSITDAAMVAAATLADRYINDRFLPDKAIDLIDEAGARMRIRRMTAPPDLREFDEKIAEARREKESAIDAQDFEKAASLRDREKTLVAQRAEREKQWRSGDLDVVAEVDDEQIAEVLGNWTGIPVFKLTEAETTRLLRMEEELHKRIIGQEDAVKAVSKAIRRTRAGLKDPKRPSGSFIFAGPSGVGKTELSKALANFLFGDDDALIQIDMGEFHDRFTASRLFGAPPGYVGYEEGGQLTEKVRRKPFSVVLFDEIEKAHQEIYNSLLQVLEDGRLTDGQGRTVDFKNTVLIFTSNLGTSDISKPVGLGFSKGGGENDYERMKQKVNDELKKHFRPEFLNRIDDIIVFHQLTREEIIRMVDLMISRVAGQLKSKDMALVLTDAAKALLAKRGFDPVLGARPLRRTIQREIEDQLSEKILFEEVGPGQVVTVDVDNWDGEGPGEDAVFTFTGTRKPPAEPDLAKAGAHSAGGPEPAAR
ClpC1-NTD substrate, M. tuberculosis ClpC1P1P2, sequence (P9WPC3 whole entry, further chain): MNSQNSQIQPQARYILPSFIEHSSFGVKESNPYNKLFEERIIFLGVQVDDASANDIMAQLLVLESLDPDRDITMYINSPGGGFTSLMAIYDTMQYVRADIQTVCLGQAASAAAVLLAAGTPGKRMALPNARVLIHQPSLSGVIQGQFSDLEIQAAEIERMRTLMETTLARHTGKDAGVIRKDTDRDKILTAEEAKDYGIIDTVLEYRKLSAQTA

[9] = Caco-2, Caco-2 permeability P (A-B)
[10] = Caco-2, Caco-2 permeability P (B-A)
[11] = mean value of P(A−B) and P(B−A)
[12] = SPR (Supplementary Table 1), read-out: KD ClpC1-NTD Mean ± SD
[13] = SPR, single independent measurements, read-out: KD ClpC1-NTD
[14] = read-out: KD ClpC1-NTD Mean ± SD
[15] = read-out: DC50, single measurements

| SMILES | Hepatocyte Mice [1] | Hepatocyte Human [2] | Papp A→B [3, 9] | Papp B→A [3, 10] | Caco-2 Int. Perm [4, 11] | Kd [5, 12] | Kd [5, 13] | Hepatocyte Stability Rat QH ([6]; Rat) | Hepatocyte Rat ([6]; clearance in hepatocytes) | Hepatocyte Stability Mouse QH [1] | Hepatocyte Stability Human QH [2] | CACO permeability PEAB ([4]; Caco-2) | CACO permeability PEBA ([4]; Caco-2) | Caco-2 Int. Perm ([4]; Caco-2) | koff ClpC1-NTD [5] | Kd ([5]; read-out: KD ClpC1-NTD) | Kd [5, 14] | Hepatocyte Stability Rat QH [6] | 1-Dmax, Mean [7] | 1-Dmax, single measurements [7] | other results |
| --- | --- | --- | --- | --- | --- | --- | --- | --- | --- | --- | --- | --- | --- | --- | --- | --- | --- | --- | --- | --- | --- |
| CO[C@H](c1ccccc1)[C@@H]1NC(=O)[C@H](C)NC(=O)[C@H](C[C@@H](C)CO)N(C)C(=O)[C@H](Cc2cn(Cc3cn(CCCCCn4cc(Cn5cc(C[C@H]6C(=O)N(C)[C@@H](C[C@@H](C)CO)C(=O)N[C@@H](C)C(=O)N[C@@H]([C@H](OC)c7ccccc7)C(=O)N[C@@H](C(C)C)C(=O)N(C)[C@@H](CC(C)C)C(=O)N[C@@H](C(C)C)C(=O)N6C)c6ccccc65)nn4)nn3)c3ccccc23)N(C)C(=O)[C@H](C(C)C)NC(=O)[C@H](CC(C)C)N(C)C(=O)[C@H](C(C)C)NC1=O [SI-57] | 15 %Qh | 12 %Qh | < 2.2 ×10⁻⁶ cm/s | < 0.7 ×10⁻⁶ cm/s | 1.5 10-6 cm s-1 | 1.6 ± 0.8 nM | 2.13 nM and 1 nM | 8.056% | 8 %Qh | – | – | – | – | – | – | – | – | – | – | – | koff ClpC1-NTD ([5]; SPR, single independent measurements): 0.001 s⁻¹; koff ([5]; SPR, single independent measurements, read-out: koff ClpC1-NTD): 0.002 s⁻¹; 1-Dmax, single measurements ([7]; Msm, Measurement 1-6): 73.5% and 61.5% and 74.0%; 1-Dmax (percent substrate remaining at maximal degradation) ([7]; Msm, Measurement 1-6, read-out: 1-Dmax, single measurements): 60.5%; 1-Dmax (percent substrate remaining at maximal degradation) ([7]; Msm, mean of the measurements, read-out: 1-Dmax, Mean): 67%; DC50 ([7]; Msm, mean of the measurements, read-out: DC50, Mean): 23000 nM; 1-Dmax, single measurements ([8]; Mtb, Measurement 1-4): 68.4% and 44.2% and 52.6%; DC50 ([8]; Mtb, Measurement 1-4, read-out: DC50, single measurements): 20900 nM and 18700 nM and 31500 nM; 1-Dmax (percent substrate remaining at maximal degradation) ([8]; Mtb, mean of the measurements, read-out: 1-Dmax, Mean): 55%; DC50 ([8]; Mtb, mean of the measurements, read-out: DC50, Mean): 23700 nM |
| CO[C@H](c1ccc(OCc2cn(CCCCCn3cc(COc4ccc([C@@H](OC)[C@@H]5NC(=O)[C@H](C)NC(=O)[C@H](C[C@@H](C)CO)N(C)C(=O)[C@H](Cc6cn(C)c7ccccc67)N(C)C(=O)[C@H](C(C)C)NC(=O)[C@H](CC(C)C)N(C)C(=O)[C@H](C(C)C)NC5=O)cc4)nn3)nn2)cc1)[C@@H]1NC(=O)[C@H](C)NC(=O)[C@H](C[C@@H](C)CO)N(C)C(=O)[C@H](Cc2cn(C)c3ccccc23)N(C)C(=O)[C@H](C(C)C)NC(=O)[C@H](CC(C)C)N(C)C(=O)[C@H](C(C)C)NC1=O [SI-66] | 15 %Qh | 12 %Qh | < 4.8 ×10⁻⁶ cm/s | < 2.5 ×10⁻⁶ cm/s | 3.7 10-6 cm s-1 | 7 ± 2 nM | 8.57 nM and 6.41 nM | 9.964% | 10 %Qh | – | – | – | – | – | – | – | – | – | – | – | koff ([5]; SPR dissociation rate constant, read-out: koff ClpC1-NTD Mean ± SD): 0.01 s⁻¹ |
| CO[C@H](c1ccccc1)[C@@H]1NC(=O)[C@H](C)NC(=O)[C@H](C[C@@H](C)CO)N(C)C(=O)[C@H](Cc2cn(CCCCn3cc(C[C@H]4C(=O)N(C)[C@@H](C[C@@H](C)CO)C(=O)N[C@@H](C)C(=O)N[C@@H]([C@H](OC)c5ccccc5)C(=O)N[C@@H](C(C)C)C(=O)N(C)[C@@H](CC(C)C)C(=O)N[C@@H](C(C)C)C(=O)N4C)c4ccccc43)c3ccccc23)N(C)C(=O)[C@H](C(C)C)NC(=O)[C@H](CC(C)C)N(C)C(=O)[C@H](C(C)C)NC1=O [SI-61] | 15 %Qh | – | – | – | – | – | – | – | – | 15.001% | 12.386% | <0.000 cm/sec | <0.000 cm/sec | 2.75 10-6 cm s-1 | 8E-4 5E-4 1/s | 0.581 nM and 0.49 nM | 0.54 ± 0.06 nM | 6.192% | 42% | 37.4% and 43.6% and 42.4% and 44.3% | Caco-2 permeability P (A-B) ([4]; Caco-2): < 4.2 10-6 cm s-1; Caco-2 permeability P (B-A) ([4]; Caco-2): < 1.3 10-6 cm s-1; Hepatocyte Rat [6]: 6 %Qh; DC50 ([7]; read-out: DC50, Mean): 5300 nM; DC50 [7, 15]: 5.3 µM (2×) and 4.6 µM and 5.8 µM; 1-Dmax, Mean [8]: 42%; 1-Dmax, single measurements [8]: 36.8% and 46.3%; DC50 ([8]; read-out: DC50, Mean): 7200 nM; DC50 [8, 15]: 7300 nM and 7000 nM |
| CCCCCn1cc(C[C@@H]2NC(=O)[C@H](CC(C)C)N(C)C(=O)[C@H](C(C)C)NC(=O)[C@H]([C@H](OC)c3ccccc3)NC(=O)[C@H](C)NC(=O)[C@H](C[C@@H](C)CO)N(C)C(=O)[C@H](Cc3cn(C)c4ccccc34)NC2=O)nn1 [Compound 24] | 35 %Qh | – | < 0.3 ×10⁻⁶ cm/s | – | 5.6 10-6 cm s-1 | – | – | 33.303% | 33 %Qh | – | – | – | – | – | – | – | – | – | – | – | Hepatocyte Stability Mouse QH ([1]; Mouse): 35.166%; Hepatocyte Stability Human QH ([2]; Human): 17.172%; Papp A→B ([3]; Caco-2, CACO permeability PEAB): < 0.27 ×10⁻⁶ cm/s; Papp B→A ([3]; Caco-2, CACO permeability PEBA): 13 ×10⁻⁶ cm/s; CACO permeability PEBA ([4]; basolateral to apical): 0.000011 cm/s; Kd ([5]; SPR, individual measurements (source data), read-out: KD ClpC1-NTD): 4.68 nM and 4.44 nM; Kd ([5]; SPR, read-out: ClpC1-NTD KD Mean ± SD): 4.6 ± 0.2 nM |
| C#CCOc1ccc([C@@H](OC)[C@@H]2NC(=O)[C@@H](C)NC(=O)[C@H](CC(C)CO)N(C)C(=O)C(Cc3cn(C)c4ccccc34)N(C)C(=O)C(C(C)C)NC(=O)[C@H](CC(C)C)N(C)C(=O)[C@@H](C(C)C)NC2=O)cc1 (some centres unmarked) [SI-64] (cyclo([NMeL][ξV][ξNMeTrp(1-Me)][X8][dA][X3][dV])) | 34 %Qh | 22 %Qh | – | – | 29.0 10-6 cm s-1 | 11 ± 1 nM | 12.1 nM and 10.5 nM | 49.748% | 50 %Qh | – | – | – | – | – | – | – | – | – | – | – | Hepatocyte Stability Mouse QH ([1]; Mouse): 34.335%; Hepatocyte Stability Human QH ([2]; Human): 21.688%; efflux ratio ([3]; Caco-2): 2.9; Papp A→B ([3]; Caco-2, CACO permeability PEAB): 17 ×10⁻⁶ cm/s; Papp B→A ([3]; Caco-2, CACO permeability PEBA): 44 ×10⁻⁶ cm/s; CACO permeability PEAB ([4]; apical to basolateral): 0.000014999999999999999 cm/s; CACO permeability PEBA ([4]; basolateral to apical): 0.000042999999999999995 cm/s; Permeability Correlation P (A-B) ([4]; influence of Trp-Nα methylation on P(A-B), matched pair, listed under the methylated partner): > 75; Permeability Correlation Ratio ([4]; influence of Trp-Nα methylation on efflux ratio, matched pair, listed under the methylated partner): > 31 |
| COC(c1ccc(OCc2cn(CCOCCOCCOCCOCCn3cc(COc4ccc(C(OC)C5NC(=O)C(C)NC(=O)C(CC(C)CO)N(C)C(=O)C(Cc6cn(C)c7ccccc67)N(C)C(=O)C(C(C)C)NC(=O)C(CC(C)C)N(C)C(=O)C(C(C)C)NC5=O)cc4)nn3)nn2)cc1)C1NC(=O)C(C)NC(=O)C(CC(C)CO)N(C)C(=O)C(Cc2cn(C)c3ccccc23)N(C)C(=O)C(C(C)C)NC(=O)C(CC(C)C)N(C)C(=O)C(C(C)C)NC1=O (centres unmarked) [SI-65] | – | – | – | – | – | – | – | – | – | 15.001% | 12.386% | <0.0000086 cm/sec | <0.0000051 cm/sec | 6.9 10-6 cm s-1 | 5E-3 1E-2 1/s | 2.29 nM and 1.35 nM | 1.8 ± 0.7 nM | 16.284% | 92% | 86.9% and 92.9% and 97.0% | DC50 ([7]; read-out: DC50, Mean): 5200 nM; DC50 [7, 15]: 6100 nM and 5000 nM and 4500 nM; 1-Dmax, Mean [8]: 84%; 1-Dmax, single measurements [8]: 84.7% and 83.2%; DC50 ([8]; read-out: DC50, Mean): 8000 nM; DC50 [8, 15]: 7000 nM and 9000 nM |
